Source: patent US12037324B2, “Biarylmethyl heterocycles” (Université de Montréal, priority 2016, dated 2024)

How the values were obtained:
Assay type in all cases: cell-based
[1] = target: T1, AGTR1 (Homo sapiens, UniProt P30556); experiment: DiscoveRx β-arrestin2 recruitment assay (enzyme complementation, Pathunter CHO-K1 AGTR1 β-arrestin cell line); details: DiscoveRx β-arrestin2 recruitment; for DiscoveRx β-arrestin2 Ymax (%): maximal response
T1 construct: host or cells: Pathunter CHO-K1 AGTR1 β-arrestin cell line (CHO-K1)
T1 sequence (P30556 1-359): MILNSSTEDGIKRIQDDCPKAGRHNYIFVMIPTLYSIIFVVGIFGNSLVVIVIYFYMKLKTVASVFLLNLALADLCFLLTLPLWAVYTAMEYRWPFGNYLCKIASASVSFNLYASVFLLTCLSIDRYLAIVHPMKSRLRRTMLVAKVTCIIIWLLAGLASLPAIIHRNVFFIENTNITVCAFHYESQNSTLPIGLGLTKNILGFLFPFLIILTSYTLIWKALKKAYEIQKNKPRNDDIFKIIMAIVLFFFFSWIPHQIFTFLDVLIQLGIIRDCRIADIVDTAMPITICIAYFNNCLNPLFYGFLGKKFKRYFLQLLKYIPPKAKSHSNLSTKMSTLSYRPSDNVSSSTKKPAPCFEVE
Method in brief: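 CHO-K1 cells expressing AGTR1 with β-arrestin2 enzyme-complementation reporter, plated 14-16 h ahead in 1% serum medium, then exposed to compounds for 90 min at 37° C. Chemiluminescence read after 1 h detection. EC50 (agonist) or IC50 (antagonist) from 4-parameter logistic fit; activity as percentage of All maximal effect.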

[2] = target: T2, hAT1R (Homo sapiens, UniProt P30556); experiment: BRET β-arrestin2 biosensor assay, higher receptor expression (hAT1R 5 ng/well), HEK293 cells; details: for EC50: High AT1R Expression
T2 sequence (P30556 1-359): T1 sequence (P30556 1-359)

[3] = target: T2, hAT1R; experiment: BRET Gq biosensor assay, agonist response, HEK293 cells; details: section of the 42nd table directly before the BRET P63 section
Method in brief: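 HEK293 cells co-transfected with signal-peptide-optimized hAT1R plus Gαq-Rluc, Gβ1 and GFP-Gγ1, assayed 48 h later in Tyrode's buffer pH 7.4. Coelenterazine (2 μM final) added, then compound; BRET2 (515/410 nm) read after 5 min at room temperature. EC50 by 4-parameter fit, normalized to unstimulated (0%) and maximal AngII (100%).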

SMILES | EC50 [1] [nM] | DiscoveRx β-arrestin2 Ymax (%) [1] [%] | BRET β-Arrestin2 High AT1R Expression Ymax (%) [2] [%] | EC50 [2] [nM] | EC50 [3] [nM]
CCCCc1ncc(C(=O)NCCOC)n1Cc1ccc(-c2cc(-c3ccccc3)ccc2-c2nn[nH]n2)cc1 [Example 374] | 10.5 | 44.3 | 94.4 | 13.4 | 16.2
CCCCc1ncc(C(=O)Nc2ccncc2C)n1Cc1ccc(-c2cc(-c3ccccc3)ccc2-c2nn[nH]n2)cc1 [Example 375] | 89.7 | 35.8 | 55.7 | 89.4 | 273
CCCCc1ncc(C(=O)Nc2ccc(C)nn2)n1Cc1ccc(-c2cc(-c3ccccc3)ccc2-c2nn[nH]n2)cc1 [Example 376] | 18.5 | 22.1 | 44.2 | 45.5 | 123
CCCCc1ncc(C(=O)NC2CCCC2)n1Cc1ccc(-c2cc(-c3ccccc3)ccc2-c2nn[nH]n2)cc1 [Example 377] | 49.5 | 39.0 | 80.9 | 25.4 | 146
CCCCc1ncc(C(=O)N2CCCCC2)n1Cc1ccc(-c2cc(-c3ccccc3)ccc2-c2nn[nH]n2)cc1 [Example 378] | 107 | 15.7 | 26.3 | 238 | 688
CCCCc1ncc(C(=O)NCC)n1Cc1ccc(-c2cc(-c3ccccc3)ccc2-c2nn[nH]n2)cc1 [Example 379] | 21.2 | 30.2 | 72.7 | 56.3 | 106
CCCCc1ncc(C(=O)NC2CCC2)n1Cc1ccc(-c2cc(-c3ccccc3)ccc2-c2nn[nH]n2)cc1 [Example 380] | 59.2 | 43.1 | 76.0 | 35 | 104
CCCCc1nc(Cl)c(C(=O)N(C)C)n1Cc1ccc(-c2cc(-c3ccccc3)ccc2-c2nn[nH]n2)cc1 [Example 381, 1-((6′-(2H-tetrazol-5-yl)-[1,1′:3′,1″-terphenyl]-4-yl)methyl)-2-butyl-4-chloro-N,N-dimethyl-1H-imidazole-5-carboxamide] | 344 | 37.4 | 73.9 | 828 | 2110
CCCCc1ncc(C(=O)NC)n1Cc1ccc(-c2cc(-c3ccccc3)ccc2-c2nn[nH]n2)cc1 [Example 382] | 13.2 | 27.6 | 67.5 | 47.1 | > 100000
CCCCc1ncc(C(=O)N(C)C)n1Cc1ccc(-c2cc(-c3ccccc3)ccc2-c2nn[nH]n2)cc1 [Example 383, 1-((6′-(2H-tetrazol-5-yl)-[1,1′:3′,1″-terphenyl]-4-yl)methyl)-2-butyl-N,N-dimethyl-1H-imidazole-5-carboxamide] | 70.4 | 22.8 | 66.3 | 309 | 7740
CCCCc1nc(Cl)c(C(=O)O)n1Cc1ccc(-c2cc(-c3cncc(OC)c3)ccc2-c2nn[nH]n2)cc1 [Example 385] | 31.4 | 35.4 | 87.0 | 57.1 | 1110
CCCCc1nc(Cl)c(C(=O)O)n1Cc1ccc(-c2cc(-c3cnn(C4CC4)c3)ccc2-c2nn[nH]n2)cc1 [Example 386] | 8.4 | 27.3 | 66.7 | 45.2 | 59100
